Read-outs that look alike come from different tables or passages of the source.
Tests used:
[1] = target: Na,K-ATPase α1β1 isoform complex (Homo sapiens, UniProt P05023); assay: biochemical; conditions: α1β1
Procedure: (§1) Methods for transformation, culture of P. pastoris clones, protein expression of Na,K-ATPase human isoforms (α1β1, α2β1, α3β1), membrane preparation, solubilization of membranes in DDM, and purification on BD-Talon beads have been described in detail (6-9, 11, 25). In initial experiments the three purified isoform complexes (0.3-0.5 mg/ml) were eluted from the BD-Talon beads in a solution containing Imidazole 170 mM, NaCl 100 mM; Tricine.HCl 20 mM pH 7.4; C12E8, 0.1 mg/ml; SOPS 0.07 mg/ml cholesterol 0.01 mg/ml, glycerol 25%. In later experiments the isoforms complexes were reconstituted with purified FXYD1 on the BD-Talon beads together as described in detail in (10, 11) prior to elution of α1β1FXYD1, α2β1FXYD1 and α3β1FXYD1 complexes. The proteins were stored at −80° C. Protein concentration was determined with BCA (B9643 Sigma).
(§2) Inhibition of Na,K-ATPase activity of the detergent-soluble α1β1, α2β1, and α3β1 complexes by CG's was determined as described (6) using either the αβ or αβFXYD1 complexes. […] The K0.5K was estimated by varying K concentration in a medium containing a fixed total K+choline chloride of 60 mM, and constant NaCl of 140 mM. Curves were fitted to the Hill function v=Vmax*[S]^n/([S]^n+K^n), where S is the K concentration, n is the Hill coefficient and K^n is K0.5K. For comparison of different curves the ratio v/Vmax for each curve was calculated and replotted. In experiments to assess inhibition of Na,K-ATPase activity by cardiac glycosides of the present invention, the percent inhibition VCG/V0 was calculated and Ki values were obtained by fitting the data to the function VCG/V0=Ki/([CG]+Ki)+ c. Inhibition was estimated in 3-8 separate experiments and average Ki values ±SEM were calculated. Significance of differences between Kiα1 and Kiα2 was calculated by the unpaired Student's t-test (p values). […] P values <0.05 were considered significant.

[2] = target: Na,K-ATPase α2β1 isoform complex (Homo sapiens, UniProt P50993); assay: biochemical; format: biochemical; conditions: α2β1
Procedure: as §1, §2

[3] = system: Na,K-ATPase α2β1 isoform complex; assay: biochemical; format: biochemical, human; conditions: Kiα1β1/Kiα2β1
Procedure: as §1, §2

[4] = system: intra-ocular pressure (IOP) of rabbits; assay: 4-aminopyridine (4AP)-induced ocular hypertension in rabbits; format: in vivo, New Zealand white rabbits
Procedure: Intra-ocular pressure in rabbits was measured using of a “Reichert Model 30™ Pneumatonometer” after anesthetizing the cornea with local anesthetic.
Since the IOP reflects a balance of the inflow and outflow of aqueous humour, reduction of the increased 4AP-induced inflow of aqueous humour by cardiac glycosides should prevent the increase in IOP. Thus, the standard experimental design to test effects of cardiac glycosides involved topical application of the compounds (1 drop in each eye) 30 minutes prior to application of 4AP and measurement of IOP every 30 minutes over five hours. […] Each experiment was done three times, but the figures depict a representative experiment using a different rabbit for each concentration of the cardiac glycoside.
DGlyN or DMe (0.1 or 1 mM) were applied one hour after the first application of 4AP, which was added every two hours.
New Zealand white rabbits (3-3.5 kg) about 1 year old, of either sex, were housed individually in separate cages in animal room conditions on a reversed, 12-hour dark/light cycle. For the experiments the animals were transferred to rabbit restrainers in a quiet and calm atmosphere (FIG. 1). […] Animal care and treatment were subject to the approval of the institutional committee for animal experiments, Weizmann Institute IACUC permission (no 04270911-2).
IOP (mm Hg) of rabbits was measured using a calibrated Pneumatonometer (Model 30, Reichert technologies, FIG. 1). A local anesthetic Oxybuprocaine HCl (0.4%, 25 μl) was applied to each cornea about a minute before IOP measurements. Two baseline IOP readings were taken before topical administration of the CG (or PBS as control) and after half an hour (Zero time). […] At zero time one drop of 4AP (40 mg/ml, 30 μl) or IB-MECA (1 μM, 30 μl) was administered to both eyes of each rabbit IOP measurements were made at different times as indicated in each experiment. In the experiments for which the IOP was elevated for several hours, 4AP was added every […] or IB-MECA every 2 hours. […] In all cases the figures depict the average effect on IOP (i.e for four or six eyes) compared to control ±SEM. […] Significance of differences from the control was calculated by the unpaired Students t-test (p values), p values <0.05 were considered significant. Corneal thickness (μm) was measured using an ultrasonic pachymeter (Sonogage pachometer, Cleveland, USA), before and during the experiment with CG and 4AP treatments. The values represent averages of three independent measurements for each eye.

cornea of rabbits = assay: Pachymetry: corneal thickness and local toxicity after topical cardiac glycosides; format: in vivo, New Zealand white rabbits; conditions: for Corneal thickness: 1 mM
Procedure: Thus, in this study, no change in corneal thickness was detected (Table 3), indicative of lack of local toxic effects. […] Similar results were obtained with CG's applied after IB-MECA.
IOP (mm Hg) of rabbits was measured using a calibrated Pneumatonometer (Model 30, Reichert technologies, FIG. 1). A local anesthetic Oxybuprocaine HCl (0.4%, 25 μl) was applied to each cornea about a minute before IOP measurements. Two baseline IOP readings were taken before topical administration of the CG (or PBS as control) and after half an hour (Zero time). […] At zero time one drop of 4AP (40 mg/ml, 30 μl) or IB-MECA (1 μM, 30 μl) was administered to both eyes of each rabbit IOP measurements were made at different times as indicated in each experiment. In the experiments for which the IOP was elevated for several hours, 4AP was added every 1.5 hours or IB-MECA every 2 hours. […] Each experiment was repeated two or three times with similar results. In all cases the figures depict the average effect on IOP (i.e for four or six eyes) compared to control ±SEM. Where error bars are not seen in the figures, the errors are smaller than the symbols used. Significance of differences from the control was calculated by the unpaired Students t-test (p values), p values <0.05 were considered significant. Corneal thickness (μm) was measured using an ultrasonic pachymeter (Sonogage pachometer, Cleveland, USA), before and during the experiment with CG and 4AP treatments. The values represent averages of three independent measurements for each eye.

Row | Structure (SMILES) | Ki ([1]; Ki ± S.E. α1, Table 2) [nM] | Ki ([2]; Ki ± S.E. α2, Table 2) [nM] | Selectivity ratio Ki α1/α2 ± S.E. [3] | other results
1 | CC1CN(O)CCC(OC2C(O)CC(OC3C(O)CC(OC4CCC5(C)C(CCC6C5CC(O)C5(C)C(C7=CC(=O)OC7)CCC65O)C4)OC3C)OC2C)O1 (stereo not drawn) [DOH] | 311 ± 18.5 | 134 ± 35 | 2.32 ± 0.62 | 
2 | C[C@H]1O[C@@H](O[C@H]2[C@@H](O)C[C@H](O[C@H]3CC[C@@]4(C)[C@H](CC[C@@H]5[C@@H]4C[C@@H](O)[C@]4(C)[C@@H](C6=CC(=O)OC6)CC[C@]54O)C3)O[C@@H]2C)C[C@H](O)[C@@H]1O [Dbis, digoxigenin bis digitoxide, reference compound] |  |  | 2.65 ± 0.81 | Ki ([1]; Table 2, read-out: Ki ± S.E. α1): 196 ± 8.5 nM; Ki ([2]; Table 2, read-out: Ki ± S.E. α2): 74 ± 5 nM
3 | C[C@@H]1O[C@@H](O[C@H]2C[C@@H](O)[C@]3(CO)[C@H]4[C@H](O)C[C@]5(C)[C@@H](C6=CC(=O)OC6)CC[C@]5(O)[C@@H]4CC[C@]3(O)C2)[C@H](O)[C@H](O)[C@H]1O [Ouabain, ouabain, reference compound] |  |  |  | Effect on 4AP-induced rise in IOP ([4]; 1 mM, 1 drop topically 30 minutes prior to 4AP): somewhat reduced IOP; Effect on 4AP-induced rise in IOP ([4]; concentrations lower than 1 mM, topically 30 minutes prior to 4AP): poorly effective; Wash-out time/rate compared with other cardiac glycosides ([4]; equal concentrations, 4AP every two hours): washed out at a rate between that of digoxin and digoxigenin; Corneal thickness (cornea of rabbits; left eye, 0 h): 455 microns; Corneal thickness (cornea of rabbits; left eye, 2 h): 409 microns; Corneal thickness (cornea of rabbits; left eye, 4 h): 422 microns; Corneal thickness (cornea of rabbits; right eye, 0 h): 461 microns; Corneal thickness (cornea of rabbits; right eye, 2 h): 405 microns; Corneal thickness (cornea of rabbits; right eye, 4 h): 414 microns; Corneal thickness (in words) (cornea of rabbits; over 4 hours, after 4AP, Digoxin 1 mM, DGlyN 0.5 mM, DMe 0.5 mM, ouabain 1 mM): not significantly affected; Redness or local irritation in conjunctiva or cornea (cornea of rabbits; topical, after 4AP): neither redness nor local irritation were observed
4 | CC1CN(CCN)CCC(OC2C(O)CC(OC3C(O)CC(OC4CCC5(C)C(CCC6C5CC(O)C5(C)C(C7=CC(=O)OC7)CCC65O)C4)OC3C)OC2C)O1 (stereo not drawn) [DEtDA] | 69 ± 10 | 16.7 ± 2.1 | 4.10 ± 0.82 | 
5 | CC1CN(C(CO)C(=O)O)CCC(OC2C(O)CC(OC3C(O)CC(OC4CCC5(C)C(CCC6C5CC(O)C5(C)C(C7=CC(=O)OC7)CCC65O)C4)OC3C)OC2C)O1 (stereo not drawn) [DSer] | 316 ± 109 | 145 ± 28.5 | 2.18 ± 0.86 | 
6 | CC1CN(C(C)C(N)=O)CCC(OC2C(O)CC(OC3C(O)CC(OC4CCC5(C)C(CCC6C5CC(O)C5(C)C(C7=CC(=O)OC7)CCC65O)C4)OC3C)OC2C)O1 (stereo not drawn) [DAlaN] | 232 ± 28 | 67 ± 8.1 | 3.46 ± 0.59 | 
7 | CC1CN(C(CO)C(N)=O)CCC(OC2C(O)CC(OC3C(O)CC(OC4CCC5(C)C(CCC6C5CC(O)C5(C)C(C7=CC(=O)OC7)CCC65O)C4)OC3C)OC2C)O1 (stereo not drawn) [DSerN] | 242 ± 15 | 144 ± 3.5 | 1.68 ± 0.13 | 
8 | Nc1ccncc1 [4AP, 4-aminopyridine, reference compound] |  |  |  | Rise of IOP ([4]; one or two drops (40 mg/ml) in each eye): 3-6 mm Hg
9 | CC1CN(NC(N)=O)CCC(OC2C(O)CC(OC3C(O)CC(OC4CCC5(C)C(CCC6C5CC(O)C5(C)C(C7=CC(=O)OC7)CCC65O)C4)OC3C)OC2C)O1 (stereo not drawn) [DSCar] | 102 ± 23 | 20 ± 3.6 | 4.98±1.2 | 
10 | CC1CN(CCC(N)=O)CCC(OC2C(O)CC(OC3C(O)CC(OC4CCC5(C)C(CCC6C5CC(O)C5(C)C(C7=CC(=O)OC7)CCC65O)C4)OC3C)OC2C)O1 (stereo not drawn) [DPrN] | 249 ± 37 | 47 ± 7.8 | 5.28±0.75 | 
11 | CC1CN(CC(=O)O)CCC(OC2C(O)CC(OC3CCC4(C)C(CCC5C4CC(O)C4(C)C(C6=CC(=O)OC6)CCC54O)C3)OC2C)O1 (stereo not drawn) [DbisGly] | 80 ± 5.5 | 34.9 ± 12 | 2.29 ± 0.80 | 
12 | CC1CN(CC(=O)O)CCC(OC2C(O)CC(OC3C(O)CC(OC4CCC5(C)C(CCC6C5CC(O)C5(C)C(C7=CC(=O)OC7)CCC65O)C4)OC3C)OC2C)O1 (stereo not drawn) [DGly] | 124 ± 8.6 | 25 ± 3.9 | 5.1±0.54 | 
13 | COC(=O)CN1CCC(OC2C(O)CC(OC3C(O)CC(OC4CCC5(C)C(CCC6C5CC(O)C5(C)C(C7=CC(=O)OC7)CCC65O)C4)OC3C)OC2C)OC(C)C1 (stereo not drawn) [DGlMe] | 540 ± 102 | 128 ± 11 | 4.22 ± 0.88 | 
